# Experimental data: patent US7750048B2, “GPR40 agonists” (Janssen Pharmaceutica NV, priority 2006, dated 2010)
# pEC50: −log10 of the molar value. Where “and” joins values, the source holds several entries; their conditions need not be identical. Equal values may be shown once.
# Target: T1, GPR40 receptor (Homo sapiens, UniProt O14842)
# T1 construct: expressed in transfected cells; host or cells: HEK293 (clone hGPR40-32)
# Assay: GPR40 in vitro assay: calcium mobilization in transfected HEK293/hGPR40-32 cells (FDSS6000)
# Type: cell-based
# Conditions: several values in one cell are separate determinations, read-out: ED50 (the source's name)
# Method: To identify agonists of GPR40 receptor, the following assay was used to measure FFA-induced calcium mobilization in transfected cell lines HEK293/hGPR40-32: • Plate 20,000 cell/well in Corning 384 well plate (Cat# 3712); • Incubate over night (16 to 24 hours); • Remove medium; • Add 40 μl of 1×BD dye (1× signal enhancer, 1× calcium indicator dye, 1× probenecid, 0.01% BSA in DMEM/F12 media without Phenol Rad); • Incubate 30 minutes at 37° C. and 15 minutes at RT; • Read with the FDSS6000 System; • Add 20 μl of test compound (in 0.01% BSA in DMEM/F12 media without Phenol Rad); • Read for 5 minutes; • Add 20 μl of 40 μM linolenic acid or GPR40 agonist (in 0.01% BSA in DMEM/F12 media without Phenol Rad); • Read for 2 minutes.
# Percentage Inhibition and/or ED50 were calculated following conventional methods.
# T1 sequence (O14842 whole entry): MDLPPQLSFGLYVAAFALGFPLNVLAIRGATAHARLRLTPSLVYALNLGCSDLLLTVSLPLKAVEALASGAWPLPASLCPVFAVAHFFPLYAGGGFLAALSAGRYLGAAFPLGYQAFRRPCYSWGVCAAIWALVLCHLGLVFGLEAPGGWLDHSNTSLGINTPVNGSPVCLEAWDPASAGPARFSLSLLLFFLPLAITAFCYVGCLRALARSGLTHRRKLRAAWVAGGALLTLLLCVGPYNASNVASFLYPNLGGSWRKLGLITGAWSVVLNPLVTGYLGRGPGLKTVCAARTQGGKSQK
row,SMILES,pEC50
1,"CCC(CC)COc1ccc(C(CC(=O)O)c2ccccc2)cc1 (racemic) [Compound 11, 3-[4-(2-Ethyl-butoxy)-phenyl]-3-phenyl-propionic acid]",6.19
2,"CCC(CC)COc1ccc(C(CC(=O)O)c2ccccc2)cc1 (single isomer, unassigned) [Compound 14, 3-[4-(2-Ethyl-butoxy)-phenyl]-3-phenyl-propionic acid]",< 4.52
3,"CCC(CC)COc1ccc(C(CC(=O)O)c2ccccc2)cc1 (single isomer, unassigned) [Compound 15, 3-[4-(2-Ethyl-butoxy)-phenyl]-3-phenyl-propionic acid]",6.07
4,"CC[C@@H](C)COc1ccc(C(CC(=O)O)c2ccccc2)cc1 (single isomer, unassigned) [Compound 16, 3-[4-(2-Methyl-butoxy)-phenyl]-3-phenyl-propionic acid]",6.15
5,"CC[C@H](C)COc1ccc(C(CC(=O)O)c2ccccc2)cc1 (single isomer, unassigned) [Compound 17, 3-[4-(2-Methyl-butoxy)-phenyl]-3-phenyl-propionic acid]",6.25
6,"CC[C@@H](C)COc1ccc(C(CC(=O)O)c2ccccc2)cc1 (single isomer, unassigned) [Compound 18, 3-[4-(2-Methyl-butoxy)-phenyl]-3-phenyl-propionic acid]",< 5.00
7,"CC[C@H](C)COc1ccc(C(CC(=O)O)c2ccccc2)cc1 (single isomer, unassigned) [Compound 19, 3-[4-(2-Methyl-butoxy)-phenyl]-3-phenyl-propionic acid]",< 5.00
8,"CCCOc1ccc(C(CC(=O)O)c2ccccc2)cc1 (stereo not drawn) [Compound 1, 3-Phenyl-3-(4-propoxy-phenyl)-propionic acid]",5.43
9,"CCCCOc1ccc(C(CC(=O)O)c2ccccc2)cc1 (stereo not drawn) [Compound 2, 3-(4-Butoxy-phenyl)-3-phenyl-propionic acid]",5.84 and 6.02
10,"CCCCCOc1ccc(C(CC(=O)O)c2ccccc2)cc1 (stereo not drawn) [Compound 3, 3-(4-Pentyloxy-phenyl)-3-phenyl-propionic acid]",5.48 and 5.38 and 5.85
11,"CCCCCCOc1ccc(C(CC(=O)O)c2ccccc2)cc1 (stereo not drawn) [Compound 4, 3-(4-Hexyloxy-phenyl)-3-phenyl-propionic acid]",5.54
12,"CCCCCCCOc1ccc(C(CC(=O)O)c2ccccc2)cc1 (stereo not drawn) [Compound 5, 3-(4-Heptyloxy-phenyl)-3-phenyl-propionic acid]",5.37
13,"O=C(O)CC(c1ccccc1)c1ccc(OCCCC(F)(F)F)cc1 (stereo not drawn) [Compound 6, 3-Phenyl-3-[4-(4,4,4-trifluoro-butoxy)-phenyl]-propionic acid]",5.50
14,"CC(C)CCOc1ccc(C(CC(=O)O)c2ccccc2)cc1 (stereo not drawn) [Compound 7, 3-[4-(3-Methyl-butoxy)-phenyl]-3-phenyl-propionic acid]",5.74 and 5.59 and 5.93
15,"C=C(C)CCOc1ccc(C(CC(=O)O)c2ccccc2)cc1 (stereo not drawn) [Compound 8, 3-[4-(3-Methyl-but-3-enyloxy)-phenyl]-3-phenyl-propionic acid]",5.57
16,"CC=CCOc1ccc(C(CC(=O)O)c2ccccc2)cc1 (stereo not drawn) [Compound 9, 3-(4-But-2-enyloxy-phenyl)-3-phenyl-propionic acid]",5.57
17,"COCCCOc1ccc(C(CC(=O)O)c2ccccc2)cc1 (stereo not drawn) [Compound 10, 3-[4-(3-methoxy-propoxy)-phenyl]-3-phenyl-propionic acid]",5.12
18,"CCC(C)COc1ccc(C(CC(=O)O)c2ccccc2)cc1 (stereo not drawn) [Compound 12, 3-[4-(2-Methyl-butoxy)-phenyl]-3-phenyl-propionic acid]",6.48 and 6.59
19,"CC1CCC(Oc2ccc(C(CC(=O)O)c3ccccc3)cc2)CC1 (stereo not drawn) [Compound 13, 3-[4-(4-Methyl-cyclohexyloxy)-phenyl]-3-phenyl-propionic acid]",5.14
20,"CCCCOc1ccc(C(CC(=O)O)c2cccc(F)c2)cc1 (stereo not drawn) [Compound 20, 3-(4-Butoxy-phenyl)-3-(3-fluoro-phenyl)-propionic acid]",5.84
21,"CCCCOc1ccc(C(CC(=O)O)c2cccc(C(F)(F)F)c2)cc1 (stereo not drawn) [Compound 21, 3-(4-Butoxy-phenyl)-3-(3-trifluoromethyl-phenyl)-propionic acid]",5.55
22,"CCCCOc1ccc(C(CC(=O)O)c2ccccc2O)cc1 (stereo not drawn) [Compound 22, 3-(4-Butoxy-phenyl)-3-(2-hydroxy-phenyl)-propionic acid]",5.32
23,"CCCCOc1ccc(C(CC(=O)O)c2cccs2)cc1 (stereo not drawn) [Compound 23, 3-(4-Butoxy-phenyl)-3-thiophen-2-yl-propionic acid]",6.02 and 5.79
24,"COCCOc1ccc(C(CC(=O)O)c2ccccc2)cc1 (stereo not drawn) [Compound 24, 3-[4-(2-Methoxy-ethoxy)-phenyl]-3-phenyl-propionic acid]",< 5.00
25,"CCC(CC)Oc1ccc(C(CC(=O)O)c2ccccc2)cc1 (stereo not drawn) [Compound 25, 3-[4-(1-Ethyl-propoxy)-phenyl]-3-phenyl-propionic acid]",< 5.00
26,"CCCCOc1ccc(C(CC(=O)O)c2ccc(OC(F)(F)F)cc2)cc1 (stereo not drawn) [Compound 26, 3-(4-Butoxy-phenyl)-3-(4-trifluoromethoxy-phenyl)-propionic acid]",< 5.00
27,"CC(C)(C)CCOc1ccc(C(CC(=O)O)c2ccccc2)cc1 (stereo not drawn) [Compound 28, 3-[4-(3,3-Dimethyl-butoxy)-phenyl]-3-phenyl-propionic acid]",< 5.00
